Laboratory results reported in patent publication USRE38103E1, “5-methanesulfonamido-1-indanones as an inhibitor of cyclooxygenase-2” (Merck Frosst Canada & Co., priority 1992, dated 2003).
Like-named read-outs stand apart in the source and are kept apart here. Values belong to the compound of their own block, whether it stands above or below them.

Columns and labels:
cyclooxygenase-2 = biological target: T1, cyclooxygenase-2 (Homo sapiens, UniProt P35354); assay: Inhibition of cyclooxygenase-2 activity (PGE2 synthesis in response to arachidonic acid, radioimmunoassay; whole cell and microsomal assays); format: cell-based; conditions: for IC50: read-out: COX-2 IC50
T1 construct: Cells used for whole cell assays, and from which microsomes were prepared for microsomal assays, were human osteosarcoma 143 cells; endogenous in cells; host or cells: human osteosarcoma 143 cells (whole cells or microsomes)
T1 sequence (P35354 18-604): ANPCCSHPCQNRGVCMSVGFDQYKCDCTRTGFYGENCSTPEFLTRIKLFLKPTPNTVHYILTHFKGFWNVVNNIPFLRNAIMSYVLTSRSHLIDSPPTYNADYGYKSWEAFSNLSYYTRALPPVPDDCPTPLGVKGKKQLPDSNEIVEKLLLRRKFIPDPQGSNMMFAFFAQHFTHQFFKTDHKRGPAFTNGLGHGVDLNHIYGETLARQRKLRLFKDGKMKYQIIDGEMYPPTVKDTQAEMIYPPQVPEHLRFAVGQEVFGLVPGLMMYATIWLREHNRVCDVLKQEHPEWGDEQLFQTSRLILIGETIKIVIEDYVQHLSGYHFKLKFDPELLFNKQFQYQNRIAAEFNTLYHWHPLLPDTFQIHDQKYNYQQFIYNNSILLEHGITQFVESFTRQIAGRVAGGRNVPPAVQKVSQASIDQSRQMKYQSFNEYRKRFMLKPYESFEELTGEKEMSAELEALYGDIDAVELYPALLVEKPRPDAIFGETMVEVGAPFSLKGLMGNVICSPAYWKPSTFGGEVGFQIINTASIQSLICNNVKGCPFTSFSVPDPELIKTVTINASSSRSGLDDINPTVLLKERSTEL
Experimental: (§1) Compounds were tested as inhibitors of cyclooxygenase activity in whole cell and microsomal cyclooxygenase assays. Both of these assays measured prostaglandin E2 synthesis in response to arachidonic acid, using a radioimmunoassay. Cells used for whole cell assays, and from which microsomes were prepared for microsomal assays, were human osteosarcoma 143 cells (which specifically express cyclooxygenase-2) and human U-937 cells (which specifically express cyclooxygenase-1). In these assays, 100% activity is defined as the difference between prostaglandin E2 synthesis in the absence and presence of arachidonate addition.
(§2) In the assay, inhibition is determined by measuring the amount of prostaglandin E2 (PGE2) synthesized in the presence of arachidonic acid, cyclooxygenase-1 or cyclooxygenase-2 and a putative inhibitor.

[1] = Monkey pharmacokinetics (Cmax, t1/2); format: in vivo
Rat plasma levels = format: in vivo
cyclooxygenase-1 = biological target: T2, cyclooxygenase-1 (Homo sapiens, UniProt P23219); assay: Inhibition of cyclooxygenase-1 activity (PGE2 synthesis in response to arachidonic acid, radioimmunoassay; whole cell and microsomal assays); format: cell-based; conditions: for COX-1 inhibition (result in words, with concentration): human U-937 cells, concentration stated in the cell; for IC50: table of prepared examples, read-out: COX-1 IC50
T2 construct: human U-937 cells (which specifically express cyclooxygenase-1); endogenous in cells; host or cells: human U-937 cells (whole cells or microsomes)
T2 sequence (P23219 24-599): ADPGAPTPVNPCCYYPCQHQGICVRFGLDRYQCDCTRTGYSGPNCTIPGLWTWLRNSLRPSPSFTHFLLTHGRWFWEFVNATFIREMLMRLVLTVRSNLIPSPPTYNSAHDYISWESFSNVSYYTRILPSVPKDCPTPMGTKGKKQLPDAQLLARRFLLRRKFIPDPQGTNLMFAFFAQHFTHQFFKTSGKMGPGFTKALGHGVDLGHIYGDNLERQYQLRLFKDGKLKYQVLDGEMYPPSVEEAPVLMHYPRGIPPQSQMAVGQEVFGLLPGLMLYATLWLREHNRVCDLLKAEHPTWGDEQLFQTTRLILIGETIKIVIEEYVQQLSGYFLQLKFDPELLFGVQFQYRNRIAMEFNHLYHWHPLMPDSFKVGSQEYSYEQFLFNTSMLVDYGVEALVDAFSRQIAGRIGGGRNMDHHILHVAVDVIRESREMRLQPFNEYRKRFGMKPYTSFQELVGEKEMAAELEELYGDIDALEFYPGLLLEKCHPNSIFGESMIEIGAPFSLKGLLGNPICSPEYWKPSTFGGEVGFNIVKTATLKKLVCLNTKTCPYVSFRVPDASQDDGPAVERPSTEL
Experimental: as §1, §2

paw edema = assay: Rat paw edema assay (carrageenan); format: in vivo; conditions: po; for Rat Paw EDEMA ED30: 1 hr before carrageenan, paw volume 3 hr later; for Rat Paw Edema ED50: table of prepared examples
Experimental: One hr later, a line was drawn using a permanent marker at the level above the ankle in one hind paw to define the area of the paw to be monitored. The paw volume (VO) was measured using a plethysmometer (Ugo-Basile, Italy) based on the principle of water displacement. […] The animals were sacrificed by CO2 aphyxiation and the absence or presence of stomach lesions scored. Data were compared with the vehicle-control values and percent inhibition calculated. […] At least 6 animals were used at each concentration All treatment groups were coded to eliminate observer bias.

IC50 (cyclooxygenase-2; table of prepared examples): 30 nM
SMILES: CS(=O)(=O)Nc1cc2c(cc1Oc1ccccc1)C(=O)CC2 [Compound 1, reference compound]

IC50 (cyclooxygenase-2; table of prepared examples): 9 nM
SMILES: CS(=O)(=O)Nc1cc2c(cc1Oc1ccc(Br)cc1)C(=O)CC2 [Compound 2]

SMILES: CS(=O)(=O)Nc1cc2c(cc1Oc1ccc(F)cc1F)C(=O)CC2 [Compound 3, Flosulide, reference compound]
Monkey Cmax ([1]; 10 mpk): 17 @ 10 mpk μg/ml | t½ Monkey (n = 2) (Estimated) ([1]; n = 2, estimated): <4 h | Rat Plasma Levels @ 1 hr (Rat plasma levels; 20 mpk): 48 @ 20 mpk μg/ml | COX-1 inhibition (result in words, with concentration) (cyclooxygenase-1): Inactive at 50 μM | IC50 (cyclooxygenase-1): > 50000 nM | Rat Paw EDEMA ED30 (paw edema): 1.1 ± .4 mpk | Rat Paw Edema ED50 (paw edema): 0.62 mpk

IC50 (cyclooxygenase-2; human osteosarcoma 143 cells, PGE2 synthesis): 8 nM | COX-1 inhibition (result in words, with concentration) (cyclooxygenase-1): Inactive at 100 μM | IC50 (cyclooxygenase-1): > 100000 nM
SMILES: CS(=O)(=O)Nc1cc2c(cc1Oc1ccc(Cl)cc1Cl)C(=O)CC2 [Compound 4, 5-Methanesulfonamido-6-(2,4-dichlorophenoxy)-1-indanone]
Rat Paw EDEMA ED30 (paw edema): 0.22 mpk | Rat Paw Edema ED50 (paw edema): 0.22 mpk

IC50 (cyclooxygenase-2; table of prepared examples): 50 nM | IC50 (cyclooxygenase-1): > 100000 nM
SMILES: CS(=O)(=O)Nc1cc2c(cc1Sc1ccccc1)C(=O)CC2 [Compound 6]
Rat Paw Edema ED50 (paw edema): 0.16 mpk

IC50 (cyclooxygenase-2; table of prepared examples): 100 nM
SMILES: CS(=O)(=O)Nc1cc2c(cc1Sc1ccc(F)cc1)C(=O)CC2 [Compound 8]

IC50 (cyclooxygenase-2; table of prepared examples): 100 nM
SMILES: CS(=O)(=O)Nc1cc2c(cc1Sc1ccc(Cl)cc1)C(=O)CC2 [Compound 9]

IC50 (cyclooxygenase-2; table of prepared examples): 10 nM
SMILES: CS(=O)(=O)Nc1cc2c(cc1Sc1ccc(I)cc1)C(=O)CC2 [Compound 11]

Cmax ([1]; in vivo, 5 mg/kg, 5 mpk): 35000 ng/mL | half-life ([1]; in vivo, n = 2, estimated, read-out: t½ Monkey (n = 2) (Estimated)): > 9 h | Rat Plasma Levels @ 1 hr (Rat plasma levels; 10 mpk): 70 @ 10 mpk μg/ml | COX-2 % INHB (cyclooxygenase-2; CONC 10 nM): 43% | COX-2 % INHB (cyclooxygenase-2; CONC 100 nM): 87% | COX-2 % INHB (cyclooxygenase-2; CONC 1000 nM): 91% | IC50 (cyclooxygenase-1): > 10000 nM
SMILES: CS(=O)(=O)Nc1cc2c(cc1Sc1ccc(F)cc1F)C(=O)CC2 [Compound 12, 5-Methanesulfonamido-6-(2,4-difluorophenylthio)-1-indanone]
Rat Paw EDEMA ED30 (paw edema): 0.3 ± .1 mpk | Rat Paw Edema ED50 (paw edema): 0.3 mpk

IC50 (cyclooxygenase-2; table of prepared examples): 13 nM
SMILES: CS(=O)(=O)Nc1cc2c(cc1Sc1ccc(Cl)cc1F)C(=O)CC2 [Compound 14]

IC50 (cyclooxygenase-2; table of prepared examples): 11 nM
SMILES: CS(=O)(=O)Nc1cc2c(cc1Sc1ccc(F)cc1Cl)C(=O)CC2 [Compound 16]

IC50 (cyclooxygenase-2; table of prepared examples): 100 nM
SMILES: Cc1ccccc1Sc1cc2c(cc1NS(C)(=O)=O)CCC2=O [Compound 19]

IC50 (cyclooxygenase-2; table of prepared examples): 50 nM
SMILES: Cc1ccc(Sc2cc3c(cc2NS(C)(=O)=O)CCC3=O)cc1 [Compound 20]

IC50 (cyclooxygenase-2; table of prepared examples): 50 nM
SMILES: CS(=O)(=O)Nc1cc2c(cc1Sc1ccc(C(F)(F)F)cc1)C(=O)CC2 [Compound 22]

IC50 (cyclooxygenase-2; table of prepared examples): 100 nM
SMILES: C=Cc1ccc(Sc2cc3c(cc2NS(C)(=O)=O)CCC3=O)cc1 [Compound 24]

SMILES: COc1ccc2c(c1)c(CC(=O)O)c(C)n2C(=O)c1ccc(Cl)cc1 [INDOMETHACIN, Indomethacin, reference compound]
Rat Paw EDEMA ED30 (paw edema): 1.1 ± .3 mpk
